Assay [1] deals with T1, Prostaglandin E synthase (Homo sapiens) (UniProt O14684).
T1 sequence (whole entry): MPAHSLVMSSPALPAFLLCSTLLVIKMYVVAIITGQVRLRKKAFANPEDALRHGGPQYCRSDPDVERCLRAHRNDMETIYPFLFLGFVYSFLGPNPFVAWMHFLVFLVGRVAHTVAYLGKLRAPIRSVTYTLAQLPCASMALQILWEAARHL
Nature of the assay: Inhibition of mPGES1 in IL-1beta-stimulated human A549 cell microsomes assessed as remaining activity at 10 uM using PGH2 as substrate by measuring reduction in PGE2 production preincubated for 15 mins followed by substrate addition and measured after 1 min by RP-HPLC analysis.

The target in another assay is T2, Prostaglandin E synthase (Homo sapiens, UniProt O14684).
T2 sequence (O14684 whole entry): T1 sequence (whole entry)
Nature of the assay: Inhibition of mPGES1 in IL-1beta-stimulated human A549 cell microsomes using PGH2 as substrate assessed as reduction in PGE2 production preincubated for 15 mins followed by substrate addition and measured after 1 min by RP-HPLC analysis.

Assay [2] addresses T3, Prostaglandin G/H synthase 1 (Ovis aries) (UniProt P05979).
T3 sequence (whole entry): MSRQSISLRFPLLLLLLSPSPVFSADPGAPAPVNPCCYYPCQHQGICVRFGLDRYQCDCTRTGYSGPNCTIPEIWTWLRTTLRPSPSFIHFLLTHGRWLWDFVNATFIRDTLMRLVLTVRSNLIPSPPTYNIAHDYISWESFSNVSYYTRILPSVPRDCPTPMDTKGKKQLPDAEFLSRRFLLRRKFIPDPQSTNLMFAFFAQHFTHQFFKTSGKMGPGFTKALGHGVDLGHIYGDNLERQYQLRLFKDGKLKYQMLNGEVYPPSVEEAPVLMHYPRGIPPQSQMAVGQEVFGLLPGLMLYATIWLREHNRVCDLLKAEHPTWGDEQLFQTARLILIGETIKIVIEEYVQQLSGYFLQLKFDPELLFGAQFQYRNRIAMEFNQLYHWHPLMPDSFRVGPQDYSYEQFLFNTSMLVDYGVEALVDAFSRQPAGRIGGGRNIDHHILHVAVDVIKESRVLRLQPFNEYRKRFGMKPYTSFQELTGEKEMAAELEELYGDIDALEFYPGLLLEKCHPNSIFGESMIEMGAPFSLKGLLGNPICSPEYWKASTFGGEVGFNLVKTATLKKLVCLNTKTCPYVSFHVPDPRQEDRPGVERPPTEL
The assay can be described thus: Inhibition of ovine COX1 at 10 uM using arachidonic acid as substrate preincubated for 5 mins followed by substrate addition and measured after 5 mins by UPLC-MS/MS analysis.

For assay [3], the target named is T4, Prostaglandin G/H synthase 2 (Homo sapiens) (UniProt P35354).
T4 sequence (whole entry): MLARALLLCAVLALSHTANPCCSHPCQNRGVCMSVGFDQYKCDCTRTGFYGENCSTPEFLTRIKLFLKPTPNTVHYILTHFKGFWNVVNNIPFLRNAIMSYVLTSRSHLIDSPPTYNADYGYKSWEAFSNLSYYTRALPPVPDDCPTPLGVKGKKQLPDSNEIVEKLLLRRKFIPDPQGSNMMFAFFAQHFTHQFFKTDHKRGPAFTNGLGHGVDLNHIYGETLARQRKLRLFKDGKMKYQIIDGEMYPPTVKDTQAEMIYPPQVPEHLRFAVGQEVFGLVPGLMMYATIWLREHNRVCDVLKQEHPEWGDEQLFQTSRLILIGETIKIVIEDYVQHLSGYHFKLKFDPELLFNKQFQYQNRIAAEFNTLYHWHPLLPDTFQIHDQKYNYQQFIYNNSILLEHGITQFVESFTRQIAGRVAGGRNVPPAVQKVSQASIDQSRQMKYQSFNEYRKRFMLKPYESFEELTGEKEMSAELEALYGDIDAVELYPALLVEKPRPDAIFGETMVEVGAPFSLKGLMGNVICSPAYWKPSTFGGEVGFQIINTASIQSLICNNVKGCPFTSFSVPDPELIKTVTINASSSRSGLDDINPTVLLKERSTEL
Nature of the assay: Inhibition of recombinant human COX2 at 10 uM using arachidonic acid as substrate preincubated for 5 mins followed by substrate addition and measured after 5 mins by UPLC-MS/MS analysis.

The target of assay [4] is T5, Prostaglandin G/H synthase 1 (Ovis aries, UniProt P05979).
T5 sequence (P05979 whole entry): T3 sequence (whole entry)
The assay can be described thus: Inhibition of ovine COX1 using arachidonic acid as substrate preincubated for 5 mins followed by substrate addition and measured after 5 mins by UPLC-MS/MS analysis.

The source made the active and inactive calls. No cut-off for these calls is given here.

Usually IC50 stands for the midpoint of a concentration-inhibition curve. Take `O=[N+]([O-])c1cc([N+](=O)[O-])c(-c2ccc(COc3cccc4ccccc34)cc2)cc1F`: the Activity in assay [1] is 9.1%. The half-inhibitory concentration (IC50) at Prostaglandin E synthase stood at 0.18 µM. In addition, the inhibition entry in assay [2] and in assay [3] was “inactive” in each case.
Regarding `O=[N+]([O-])c1cc([N+](=O)[O-])c(-c2ccccc2COc2cccc(C(F)(F)F)c2)cc1F`, the Activity in assay [1] is 7%. In addition, the half-maximal inhibitory concentration (IC50) at Prostaglandin E synthase worked out at 0.54 µM; in assay [4], 3 µM. For the same molecule, the inhibition result in assay [2] is “Active”. The inhibition result in assay [3] is “inactive”.
For the molecule `O=[N+]([O-])c1cc(C(F)(F)F)ccc1-c1ccc(COc2cccc(C(F)(F)F)c2)cc1`, in assay [1], the result was inactive. The half-inhibitory concentration (IC50) at Prostaglandin E synthase is over 10 µM.
On to `O=[N+]([O-])c1cc([N+](=O)[O-])c(-c2ccc(COc3ccccc3)cc2)cc1F`, for which the Activity in assay [1] was 9.5%. Further, at Prostaglandin E synthase, the IC50 is 0.6 µM. Besides, the inhibition result in assay [2] and in assay [3] was “inactive” in each case.
As to `COCCc1ccc(OCc2ccc(-c3ccc(C(F)(F)F)cc3[N+](=O)[O-])cc2)cc1`, the result in assay [1] was inactive. At Prostaglandin E synthase, the half-inhibitory concentration (IC50) was over 10 µM.
Regarding `COCCc1ccc(OCc2ccc(-c3cc(F)c([N+](=O)[O-])cc3[N+](=O)[O-])cc2)cc1`, the Activity in assay [1] came to 11.8%. Also, the half-maximal inhibitory concentration (IC50) at Prostaglandin E synthase is 1.64 µM. The inhibition entry in assay [2] and in assay [3] was “inactive” in each case.
For `O=[N+]([O-])c1cc([N+](=O)[O-])c(-c2ccc(COc3cccc(C(F)(F)F)c3)cc2)cc1F`, the Activity in assay [1] came to 12.1%. In addition, the IC50 at Prostaglandin E synthase was found to be 0.26 µM. Moreover, the inhibition result in assay [2] and in assay [3] was “inactive” throughout.
With `O=[N+]([O-])c1cc(C(F)(F)F)ccc1-c1ccc(COc2ccccc2)cc1`, the outcome in assay [1] was inactive. Further, the 50% inhibitory concentration (IC50) at Prostaglandin E synthase was over 10 µM.
The corresponding values for `O=[N+]([O-])c1cc(C(F)(F)F)ccc1-c1ccc(COc2cccc3ccccc23)cc1` are “inactive” and over 10 µM.
The corresponding values for `O=[N+]([O-])c1cc(C(F)(F)F)ccc1-c1ccccc1COc1cccc(C(F)(F)F)c1` are “inactive” and over 10 µM.

The values above are taken from ChEMBL document CHEMBL4251562, “Discovery of new potent molecular entities able to inhibit mPGES-1” (Eur J Med Chem, 2018).
